The text below walks through data of US8637237B2, “Methods, compositions, and systems for the identification of species-specific or developmental stage-specific insecticides” (The University of North Carolina at Greensboro, priority 2003, dated 2014).

As a reminder, the Km is the concentration of substrate that gives half-maximal velocity. By inhibition is commonly meant the relative decrease from the control value, in per cent. The pEC50 is the EC50 on a negative log10 scale, so that one unit is a factor of ten.

One series has as its target T1, FXR (Rattus norvegicus, UniProt Q62735).
T1 sequence (Q62735 1-469): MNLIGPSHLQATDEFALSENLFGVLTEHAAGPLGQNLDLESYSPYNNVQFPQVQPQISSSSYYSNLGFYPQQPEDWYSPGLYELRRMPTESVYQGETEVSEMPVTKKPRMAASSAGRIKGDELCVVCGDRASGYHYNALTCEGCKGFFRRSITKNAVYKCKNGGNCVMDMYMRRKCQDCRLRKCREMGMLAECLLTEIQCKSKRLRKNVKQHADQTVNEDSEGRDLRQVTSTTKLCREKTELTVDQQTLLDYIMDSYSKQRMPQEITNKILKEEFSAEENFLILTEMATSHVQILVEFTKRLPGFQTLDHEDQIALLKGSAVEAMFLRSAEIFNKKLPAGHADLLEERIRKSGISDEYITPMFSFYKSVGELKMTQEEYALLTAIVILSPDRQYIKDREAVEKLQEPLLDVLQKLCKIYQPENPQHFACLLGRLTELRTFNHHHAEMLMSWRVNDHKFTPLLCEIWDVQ
T1 sequence (P28700 1-467 partner): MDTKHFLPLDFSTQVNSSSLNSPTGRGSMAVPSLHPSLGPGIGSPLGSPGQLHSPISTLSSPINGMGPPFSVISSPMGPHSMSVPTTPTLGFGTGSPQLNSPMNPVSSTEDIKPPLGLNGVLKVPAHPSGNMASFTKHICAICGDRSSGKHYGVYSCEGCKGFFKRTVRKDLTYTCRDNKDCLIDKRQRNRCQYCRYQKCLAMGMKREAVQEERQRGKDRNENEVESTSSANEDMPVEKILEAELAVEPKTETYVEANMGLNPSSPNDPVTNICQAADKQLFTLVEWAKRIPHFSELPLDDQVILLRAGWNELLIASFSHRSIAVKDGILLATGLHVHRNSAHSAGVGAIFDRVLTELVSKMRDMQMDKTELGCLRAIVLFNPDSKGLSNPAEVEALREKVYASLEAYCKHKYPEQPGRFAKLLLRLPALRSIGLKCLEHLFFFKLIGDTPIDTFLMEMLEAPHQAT
As to the kind of experiment: cell-based. Put shortly: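 CHO cells co-transfected with FXR, mouse RXRα and a (EcRE)5-ΔMTV-CAT reporter, with β-galactosidase for normalization. An RXR-dependent CRBPII-CAT reporter was run in parallel. Cells were exposed to candidate juvenoids for 24 h; CAT activity normalized to β-gal and expressed as fold induction over vehicle controls.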

The conditions of series [1]: via 20,22-dihydroxycholesterol intermediate; read-out: apparent Km of metabolism to pregnenolone; cited from earlier work.
Series [2] has as its system Leptinotarsa decemlineata EcR. Nature of the series: Leptinotarsa decemlineata EcR/USP, response to agonists (FIG. 7, 8). Conditions: FIG. 8. Type of series: cell-based. The protocol: Unless noted otherwise, 100 ng of each EcR and USP plasmid was transfected into 2 ml of cell culture medium. As noted above, a reporter gene carrying five tandem copies of the hsp27 ecdysone response element (Riddihough and Pelham, 1986) is attached to a constitutive thymidine kinase promoter and a luciferase reporter gene (pEcREtk-LUC) and cotransfected into the cells along with vectors expressing EcR, USP, and a constitutively active β-galactosidase gene with lipofection, following manufacturer's protocols. The subsequent measure of luciferase activity reflects ecdysteroid-inducible transcription.
After a 4 hour transfection period, the hormone treatment was applied by diluting stock solutions of muristerone A (murA; Alexis Corporation, San Diego, Calif.), JHI (Scitech), JHIII (Sigma, St Louis, Mo.), and/or 20E (Sigma, St Louis, Mo.) in DMSO. The cells were harvested 24 hours after treatment and the contents of the cells extracted for performing the luciferase and β-galactosidase assays.
Leptinotarsa decemlineata (Ld) USP constructs were made by sub-cloning two different LdUSP inserts into the pVP16 vector (Clontech). This vector encodes a fusion protein of the herpes simplex virus […] viral protein (VP16) activation domain (AD) fused to LdUSP. The LdUSP portion of the fusion gene was isolated by PCR in two different lengths from a plasmid, pBSKS(+)-LdUSP. […]

A further series has as its target T2, GGF (Rattus norvegicus, UniProt Q62735).
T2 construct: the GR amino terminus and DBD (appending 23 amino acids downstream from the conserved gly-met) were fused to the FXR LBD; expressed in transfected cells; host or cells: CHO
Nature of the series: GGF chimera (GR amino terminus and DBD, FXR LBD) in CHO cells. As to conditions: data not shown. Type of series: cell-based. The text has this: A plasmid was constructed that expresses a hybrid protein (GGF) consisting of the human GR amino terminus and DBD linked to the carboxyl terminus of FXR.
In these experiments, CHO cells were transfected with receptor plasmids expressing GGF and mouse RXRα and a luciferase reporter plasmid containing the upstream 1.5 kbp of the MTV promoter.

For another series, the system named is RAR. Nature of the series: RAR-based transcriptional assay. Type of series: cell-based. Conditions: data not shown.
In a further series the target is RXR (Mus musculus, UniProt P28700). As to the kind of experiment: RXR-based transcriptional assay. Type of series: cell-based. Conditions: data not shown.
A further series concerns PPAR. Nature of the series: PPAR-based transcriptional assay. Type of series: cell-based. As to conditions: data not shown.
A further series deals with GR (Homo sapiens, UniProt P04150). Nature of the series: GR-based transcriptional assay. Type of series: cell-based. Conditions: data not shown.
GR, sequence (P04150 whole entry): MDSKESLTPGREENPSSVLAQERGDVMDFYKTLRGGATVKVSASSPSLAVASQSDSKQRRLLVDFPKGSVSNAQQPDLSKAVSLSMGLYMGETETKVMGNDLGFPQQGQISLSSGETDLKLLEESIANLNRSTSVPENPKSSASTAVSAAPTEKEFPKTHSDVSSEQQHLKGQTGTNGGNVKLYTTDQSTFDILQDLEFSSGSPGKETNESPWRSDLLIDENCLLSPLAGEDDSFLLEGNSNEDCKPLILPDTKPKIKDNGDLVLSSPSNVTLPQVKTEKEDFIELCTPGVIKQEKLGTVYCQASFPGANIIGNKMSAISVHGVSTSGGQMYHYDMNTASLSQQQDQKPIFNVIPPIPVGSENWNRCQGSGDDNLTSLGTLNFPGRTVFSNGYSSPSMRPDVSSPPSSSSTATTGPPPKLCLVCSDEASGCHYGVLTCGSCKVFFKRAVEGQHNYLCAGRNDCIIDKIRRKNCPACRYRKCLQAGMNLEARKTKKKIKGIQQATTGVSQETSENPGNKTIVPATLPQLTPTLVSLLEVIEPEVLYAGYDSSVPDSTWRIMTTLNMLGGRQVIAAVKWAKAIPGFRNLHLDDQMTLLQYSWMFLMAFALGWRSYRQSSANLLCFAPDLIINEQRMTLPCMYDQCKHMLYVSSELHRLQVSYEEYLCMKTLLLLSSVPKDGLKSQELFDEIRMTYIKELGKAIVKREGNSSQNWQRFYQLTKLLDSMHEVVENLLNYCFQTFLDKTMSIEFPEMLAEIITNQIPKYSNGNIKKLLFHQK

pEC50: −log10 of the molar value.

Description for RXR: In these experiments, candidate juvenoids were tested for their ability to activate FXR mediated transcription by transfecting Chinese hamster ovary (CHO) cells using the FXR plasmid, mouse RXRα, and the ΔMTV-(EcRE)5-CAT reporter as described herein. An RXR-dependent CRBPII-CAT reporter plasmid was employed in parallel assays to discern activators specific for this receptor.

In the case of `CC(C)CC[C@@H](O)[C@@H](C)[C@H]1CC[C@H]2[C@@H]3CC=C4C[C@@H](O)CC[C@]4(C)[C@H]3CC[C@]12C` [22R-hydroxycholesterol, 22R-Hydroxycholesterol], the “FXR-dependent transcription, induction” value on FXR (7.5 μM) turned out to be 10 fold. In addition, the Km in series [1] was 7 µM.

Regarding `COc1cccc(C(=O)NN(C(=O)c2cc(C)cc(C)c2)C(C)(C)C)c1C` [RH2485], the “stimulation of Leptinotarsa EcR, agonists compared” value in series [2] was “much greater stimulation by RH2485, than by murA or 20E”.

Regarding `O=c1ccc2cc(O)c(O)cc2o1` [esculetin], the “FXR-dependent activity, induction” value at FXR (1 mM) was “ineffectiveness”. For the same compound, the inhibition at 100 µM at FXR (CHO, read-out: inhibition of FXR activity induced by farnesol) stood at 44%. For the same compound, at GGF, the “inhibition of CDCA-induced GGF-dependent activity” value was found to be 54%.

On to `COc1ccc2c(c1)OC(C)(C)C=C2` [precocene I], for which, at FXR (100 μM TLC-purified precocene I incubated with CD-1 mouse liver microsomes, NADPH, 37° C., one hour), the “reduction of FXR activity of mouse liver microsome extract by ethyl acetate-soluble products” value is reported as 70%. The “FXR-dependent activity, induction” value at FXR (dose not stated) came to 15 fold. Further, the “FXR activity of TLC-separated material from precocene I” value on FXR (eluted from silica, hexane-ethyl acetate (9:1)) is listed as “did not affect FXR”. The pEC50 at FXR (read-out: EC50 for FXR-dependent CAT activity) was 3.82. For the same compound, the “activity in RAR-based transcriptional assay” value with RAR is “inactive”. Besides, the “activity in RXR-based transcriptional assay” value on RXR was “inactive”. Also, the “activity in PPAR-based transcriptional assay” value in the series on PPAR is “inactive”. Besides, the “activity in GR-based transcriptional assay” value on GR is “inactive”.
